In patent US20080070240A2, “COMPOSITION FOR DEAMINATING DNA AND METHOD OF DETECTING METHYLATED DNA” (Toyo Boseki Kabushiki Kaisha, priority 2004, published 2008):

Assay: Measurement of solubility of sulfites in distilled water
Conditions: for Concentration, Calculated value: calculated from mass and molecular weight; for Concentration, Measured value (sulfite concentration, solubility): method 0-A
Protocol: To a cuvette for measuring absorbance (1×1×4 cm, manufactured by Hitachi High-Technologies Co.), 3 ml of 0.1 N hydrochloric acid (manufactured by Wako Pure Chemical Co., Ltd.) was added. To the cuvette, 30 μl of a sulfite solution diluted with distilled water was added, the cuvette was covered with parafilm, and inverted 3 times to mix the solutions.
Then, the mass, volume and pH at that time were measured. In addition, with regard to each solution, the sulfite concentration was measured in accordance with the method 0-A described above.
With regard to the concentration in the table, the calculated value represents the sulfite concentration (M (mol/l)) calculated from the mass and the molecular weight of each dissolved sulfite. In addition, the measured value represents the sulfite concentration (M) measured in accordance with the method 0-A described above.

Compound	pH of saturated solution (30° C.)	Concentration, Calculated value (30° C.)	Concentration, Measured value (sulfite concentration, solubility) (30° C.)	pH of saturated solution (70° C.)	Concentration, Calculated value (70° C.)	solubility (30° C., distilled water, saturated)
O=S([O-])O.[Na+] [Sodium bisulfite, sodium bisulfite]	4.4	5.2 M	5.0 M	4.5	6.5 M	–
O=S([O-])[O-].[Na+].[Na+] [Sodium sulfite, sodium sulfite]	10.3	–	–	10.5	–	200 mg/mL
ammonium sulfite monohydrate	–	–	3.5 M	–	–	–
